Data set [1] deals with T1, human recombinant PARP1 (Homo sapiens, UniProt P09874).
T1 construct: made in house
As to the kind of experiment: PARP1 activity by inclusion of α-[32P]-NAD+ in poly(ADP-ribose). Particulars: in the presence of 1 mM compound; read-out: Residual activity of PARP1. Format: biochemical. As for the experimental part:
(§1) Since it has previously been shown that nucleoside derivatives can inhibit enzymes of the PARP family, we also checked whether the studied compounds were able to inhibit the enzymes PARP1 and PARP2. […] Thus, when using our compounds, one cannot expect side effects from PARP1/2.
(§2) Purified human recombinant PARP1/2 [65] and [^32P] NAD^+ [27] were prepared as described earlier. The activity of PARP1/2 was evaluated by the rate of incorporation of the radioactive label into the acid-insoluble reaction product—PAR as described previously.

The subject of data set [2] is mice ascitic Krebs-2 carcinoma. In words: Antitumor effect of topotecan with compounds in vivo, ascitic Krebs-2 carcinoma model. The settings on record: C57Bl/6 mice; for Tumor mass (ascites weight) and number of tumor cells, combination with Tpc compared to only Tpc: Tpc 1 mg/kg + compound 100 mg/kg i/p once on day 4, 6d p = 0.0018. The text has this: The effect of compounds 5f, 6c and 6d on the effectiveness of Tpc was studied in vivo on a mice ascitic Krebs-2 carcinoma model. Krebs-2 carcinoma can be transplanted into mice of various genetic constitutions. […] This model combines the advantages of in vitro and in vivo approaches to study the cytotoxic effects of compounds, since ascites cells grow in the environment of the body (in vivo), and intraperitoneal administration of the drug ensures its direct contact with tumor cells (in vitro), bypassing absorption, delivery to the tumor, possible transformations, etc.
During the experiment, mice were injected intraperitoneally with 2 × 10^6 ascites cells, after that a liquid ascites tumor grew at the site of inoculation.
The effect of drugs on the tumor was assessed at the end of the experiment by the weight of the ascitic tumor (the difference in the weight of the mouse with the tumor and after tumor removal), as well as by the number of tumor cells in the ascites.
Three- to four-month-old male and female C57Bl/6 mice (19–21 g) from the breeding colony of the Institute of Cytology and Genetics, SB RAS, Novosibirsk, Russia, were used in the study. The animals were kept on sawdust in plastic cages of 5–7 mice per cage with free access to ground food (“Laboratorkorm”, Moscow, Russia) and tap water. All procedures with the mice were performed in accordance with the international rules for experiments on animals [European Communities Directive (86/609 EEC)].
The experimental tumor model was transplantable Krebs-2 carcinoma obtained from the cell depository of the Institute of Cytology and Genetics SB RAS (Novosibirsk, Russia) and was maintained in mice as a transplanted tumor. Krebs-2 was obtained from epithelial cells of the abdominal wall of a mouse. Krebs-2 carcinoma is nonspecific in its host requirements and can be grafted into mice with any genetic context. With intraperitoneal inoculation, it forms an ascites form.
The antitumor effect was assessed by the weight of the ascites and by the number of tumor cells in ascites. The weight of Krebs-2 ascites was assessed by the difference in the weight of mice before and after the removal of ascites. The number of tumor cells in ascites was determined using a hemocytometer Goryaev camera. In autopsied mice, the weights of liver, lung, heart, kidneys, and spleen were assessed as well as the tumor and body weights.
The animals were treated once in total dose of Tpc 1 mg/kg and Tdp1 inhibitor (5f, 6c or 6d) 100 mg/kg. We started the treatment on the fourth day after the tumor was inoculated, with the expectation that it had just begun to form. […] The animals were euthanized eight days after the transplantation and the compound effect on mice was evaluated by measuring the tumor weight and number of tumor cells in ascites.

For data set [3], the target named is T2, human recombinant PARP2 (Homo sapiens, UniProt Q9UGN5).
T2 construct: made in house
T2 sequence (Q9UGN5 whole entry): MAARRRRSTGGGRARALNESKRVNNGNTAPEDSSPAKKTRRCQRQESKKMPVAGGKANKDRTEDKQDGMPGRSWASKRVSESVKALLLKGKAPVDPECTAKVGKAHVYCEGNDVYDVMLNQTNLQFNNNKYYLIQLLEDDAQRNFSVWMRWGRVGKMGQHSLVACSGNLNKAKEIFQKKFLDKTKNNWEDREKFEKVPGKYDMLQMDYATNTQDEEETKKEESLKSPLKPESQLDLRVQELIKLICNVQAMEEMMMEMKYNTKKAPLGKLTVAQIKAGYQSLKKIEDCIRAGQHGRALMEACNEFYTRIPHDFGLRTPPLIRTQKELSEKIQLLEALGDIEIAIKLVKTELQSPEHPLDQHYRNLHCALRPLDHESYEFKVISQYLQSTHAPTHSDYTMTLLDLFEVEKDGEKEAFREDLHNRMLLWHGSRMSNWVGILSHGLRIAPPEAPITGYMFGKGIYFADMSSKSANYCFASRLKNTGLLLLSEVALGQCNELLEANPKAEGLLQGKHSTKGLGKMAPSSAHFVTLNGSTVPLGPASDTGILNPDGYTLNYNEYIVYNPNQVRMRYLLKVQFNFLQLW
In words: PARP2 activity by inclusion of α-[32P]-NAD+ in poly(ADP-ribose). The format is biochemical. The settings on record: in the presence of 1 mM compound; read-out: Residual activity of PARP2. The method, then: as §1, §2

Data set [4] relates to HeLa cells. As to the kind of experiment: Effect of compounds on topotecan cytotoxicity (EZ4U test). The format is cell-based, human. The settings on record: compound 10 μM in combination with Tpc. From the text:
Tdp1 inhibitors are intended to be used in therapeutic cocktails to sensitize tumors to the action of anticancer Top1 poisons. […] To assess the toxicity of the compounds, their effect on the survival of the HeLa cell line (human cervical cancer) was studied using the colorimetric test of metabolic activity of cells EZ4U, which reflects the survival of cells in the presence of the studied compounds. The EZ4U assay is based on the ability of living cells to reduce the colorless tetrazolium salt XTT [sodium 3,3′-{1-(phenylamino)-carbonyl-3,4-tetrazolium) -bis(4-methoxy-6-nitro)-benzene sulfonic acid hydrate] to an orange water-soluble formazan product. This method was used to investigate the intrinsic cytotoxicity of promising inhibitors discovered in the course of this work, as well as the toxicity of their combination with Tpc.
As already mentioned, we expected to increase the efficacy and/or reduce the dosage of Tpc with Tdp1 inhibitors. To do this, we studied the effect of nucleoside derivatives on Tpc cytotoxicity. […] We attribute this to the probable presence of protein targets other than Tdp1 in the cell.
Cytotoxicity of the compounds was examined on human cell lines HeLa using an EZ4U colorimetric test (Biomedica, Vienna, Austria). The HeLa cell line was obtained from the Russian Cell Culture Collection (RCCC) Institute of Cytology RAS, St. Petersburg, Russia. The cells were grown in DMEM/F12 medium (Gibco, Thermo Fisher Scientific, Waltham, MA, USA), with 1x GlutaMAX (Gibco, Thermo Fisher Scientific, Waltham, MA, USA), 50 IU/mL penicillin, 50 μg/mL streptomycin (MP Biomedicals), and in the presence of 10% fetal bovine serum (Biolot, Saint-Petersburg, Russia) in a 5% CO2 atmosphere. Since lipophilic nucleosides are soluble in DMSO, cells were grown in the presence of 1% DMSO in the control wells. After the formation of a 30–50% monolayer, the tested compounds were added to the medium, and the cell culture was monitored for 3 days. The values were normalized to their own control in each case. At least three independent experiments were carried out. The 50% cytotoxic concentration (CC50) was defined as the compound concentration that reduced the cell viability by 50% when compared to the untreated controls. The CC50 value was determined using OriginPro 8.6.0 software (OriginLab, Northampton, MA, USA). The measurements were carried out in three independent experiments.

We go through three molecules from paper PMC9822400, “The Lipophilic Purine Nucleoside—Tdp1 Inhibitor—Enhances DNA Damage Induced by Topotecan In Vitro and Potentiates the Antitumor Effect of Topotecan In Vivo” (Molecules, 2022).

The structures appear in SMILES notation. “Also recorded” adds a separate entry of the source.

T1 sequence (P09874 whole entry): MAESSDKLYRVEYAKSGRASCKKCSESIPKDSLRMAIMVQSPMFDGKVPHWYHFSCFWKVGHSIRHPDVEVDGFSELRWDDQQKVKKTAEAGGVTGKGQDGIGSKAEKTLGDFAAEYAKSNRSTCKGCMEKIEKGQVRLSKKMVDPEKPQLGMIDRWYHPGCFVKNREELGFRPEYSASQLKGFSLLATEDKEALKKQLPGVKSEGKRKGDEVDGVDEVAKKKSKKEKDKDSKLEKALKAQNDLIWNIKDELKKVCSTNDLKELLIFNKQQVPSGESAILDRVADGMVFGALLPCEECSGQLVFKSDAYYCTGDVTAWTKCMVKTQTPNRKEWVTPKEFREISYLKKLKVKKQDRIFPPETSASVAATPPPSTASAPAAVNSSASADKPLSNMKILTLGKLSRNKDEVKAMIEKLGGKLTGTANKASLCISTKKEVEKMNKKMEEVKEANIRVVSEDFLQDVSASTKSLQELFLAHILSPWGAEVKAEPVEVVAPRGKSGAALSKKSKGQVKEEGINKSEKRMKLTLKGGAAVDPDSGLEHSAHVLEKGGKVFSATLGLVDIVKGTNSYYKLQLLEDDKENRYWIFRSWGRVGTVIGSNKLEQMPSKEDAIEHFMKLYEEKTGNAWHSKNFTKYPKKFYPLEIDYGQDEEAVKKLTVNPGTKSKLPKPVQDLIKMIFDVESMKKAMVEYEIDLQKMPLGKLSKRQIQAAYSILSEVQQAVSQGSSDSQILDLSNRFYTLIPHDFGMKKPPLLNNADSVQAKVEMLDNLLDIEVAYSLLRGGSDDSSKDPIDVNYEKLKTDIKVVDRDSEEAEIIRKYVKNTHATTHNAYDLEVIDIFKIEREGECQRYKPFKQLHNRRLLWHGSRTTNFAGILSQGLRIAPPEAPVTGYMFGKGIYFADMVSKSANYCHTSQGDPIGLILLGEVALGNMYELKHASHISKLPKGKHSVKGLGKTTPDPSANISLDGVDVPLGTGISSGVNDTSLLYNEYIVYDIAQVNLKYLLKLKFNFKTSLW

`O=C(OC[C@H]1O[C@@H](n2cnc3c(Cl)nc(F)nc32)[C@H](OC(=O)c2ccccc2)[C@@H]1OC(=O)c1ccccc1)c1ccccc1` [compound 6c, 2-Fluoro-6-chloro-9-(2,3,5-tri-O-benzoyl-β-D-ribofuranosyl)purine]: the remaining activity at 1000 µM stood at 82 ± 17% in data set [1] and 80 ± 20% in data set [3]. Also, in data set [2], the “Tumor mass (ascites weight) and number of tumor cells, combination with Tpc compared to only Tpc” value is given as “did not obtain the sensitizing effect; also recorded: did not result in a reliable decrease”. Also, in data set [4], the “Enhancement of Tpc Cytotoxicity by 10 μM Compounds” value is on record as 6.5 Times.
The matching figures for `O[C@@H]1[C@H](O)[C@@H](COC(c2ccccc2)(c2ccccc2)c2ccccc2)O[C@H]1n1cnc2c(NC(c3ccccc3)(c3ccccc3)c3ccccc3)ncnc21` [compound 5f]: 100 ± 10%, 113 ± 18%, “no sensitizing effect; also recorded: did not result in a reliable decrease” and 1.7 Times.
For `O=C(OC[C@H]1O[C@@H](n2cnc3c(Cl)nc(Cl)nc32)[C@H](OC(=O)c2ccccc2)[C@@H]1OC(=O)c1ccccc1)c1ccccc1` [compound 6d, 2,6-dichloro-9-(2,3,5-tri-O-benzoyl-β-D-ribofuranosyl)purine], the remaining activity at 1000 µM was 96 ± 12% in data set [1] and 86 ± 9% in data set [3]. Further, the “Tumor mass (ascites weight) and number of tumor cells, combination with Tpc compared to only Tpc” value in data set [2] is on record as “significant decrease; also recorded: synergistic decrease of tumor size”. The “Tumor mass (ascites weight) and number of tumor cells, compound alone” value in data set [2] (compound 100 mg/kg i/p once on day 4, 100 mg/kg) is reported as “did not affect this parameter; also recorded: did not affect tumor growth”. Moreover, the “Enhancement of Tpc Cytotoxicity by 10 μM Compounds” value in data set [4] is on record as 4.8 Times.
